Peptide text beside a SMILES is read from it. * marks the point of attachment. 5FAM = O=C1OC2(c3ccc(O)cc3Oc3cc(O)ccc32)c2ccc(C(=O)*)cc21
Test: in vivo
Parameters: species or system BALB/C athymic nude mice
Settings: BALB/C athymic nude, mouse, iv, 150 uL of 1 mM, T/NT ratio
Procedure: Mice with U87MG tumor xenografts (n = 10) were randomly divided into an experimental group (n = 5) and control group (n = 5). The mice in the experimental group were intravenously injected with 150 μL of FAM-tLyP-1 (1mM), while the control group received 150 μL of FAM-labeled control peptide (1mM). The mice were sacrificed after 1 h by cervical dislocation under ketamine/xylazine anesthesia. The tumor and normal organs were then removed, washed with PBS at least three times, and then collected for imaging ex vivo. FAM-tLyP-1 uptake in the tumor and normal organs was described by a blinded observer under blue light with an exposure time of 60 s, using the Kodak in-Vivo Imaging System F (Kodak, American), and processed for fluorescence intensity analysis. The fluorescence intensity was analyzed visually based on the brightness of the green light indicating uptake of FAM-tLyP-1.
The intensity of FAM-tLyP-1 uptake in the tumor and normal organs was analyzed blindly using the Kodak MI analysis software (Kodak, American). The fluorescence intensity was analyzed visually from high to low levels based on a color scale of white, red, yellow, green, blue, and black. Regions of interest (ROIs) were drawn around the border of the tumor and normal organs on the fluorescence images and the average fluorescence intensity was measured. The tumor/non-tumor ratios (T/NT ratios) were calculated by dividing the fluorescence intensity in the tumor by that of the normal organs.

Row | tissue to tissue ratio at 1 h (T/brain) | tissue to tissue ratio at 1 h (T/heart) | tissue to tissue ratio at 1 h (T/intestine) | tissue to tissue ratio at 1 h (T/kidney) | tissue to tissue ratio at 1 h (T/liver) | tissue to tissue ratio at 1 h (T/lung) | tissue to tissue ratio at 1 h (T/muscle) | tissue to tissue ratio at 1 h (T/spleen) | SMILES
1 | 1.32 ± 0.15 | 1.94 ± 0.26 | 0.87 ± 0.3 | 0.57 ± 0.51 | 1.28 ± 0.25 | 1.4 ± 0.1 | 1.31 ± 0.14 | 1.75 ± 0.17 | CSCC[C@H](N)C(=O)N[C@@H](C)C(=O)N[C@@H](CCC(N)=O)C(=O)N[C@@H](CCCCNC(=O)c1ccc2c(c1)C(=O)OC21c2ccc(O)cc2Oc2cc(O)ccc21)C(=O)N[C@H](C(=O)N[C@@H](CO)C(=O)N[C@@H](Cc1c[nH]cn1)C(=O)O)[C@@H](C)O [FAM-control peptide] (H-MAQK(5FAM)TSH-OH)
2 | 3.44 ± 0.83 | 4.61 ± 1 | 0.84 ± 0.35 | 0.88 ± 0.74 | 2.34 ± 0.36 | 3.29 ± 0.79 | 2.87 ± 0.45 |  | C[C@@H](O)[C@H](NC(=O)[C@H](CCCNC(=N)N)NC(=O)[C@H](CCCCNC(=O)c1ccc2c(c1)C(=O)OC21c2ccc(O)cc2Oc2cc(O)ccc21)NC(=O)[C@H](CC(N)=O)NC(=O)CNC(=O)[C@@H](N)CS)C(=O)N[C@@H](CCCNC(=N)N)C(=O)O [FAM-tLyP-1] (H-CGNK(5FAM)RTR-OH)

From paper PMC4580457, “Use of Labelled tLyP-1 as a Novel Ligand Targeting the NRP Receptor to Image Glioma” (PLoS ONE, 2015)
